Assay results reported in ChEMBL document CHEMBL1201862, “PubChem BioAssay data set” (2004).
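Interpolation was linear, between the two tested concentrations surrounding the appropriate level; five concentrations were tested over 48 hours in 96-well plates. Abbreviation: GI50, concentration required for 50% inhibition of growth.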 The source made the active and inactive calls. No stated cut-off is given here; in the data, active = GI50 up to about 1.1 µM and inactive = higher.

Tests used:
Test in all cases: inhibition of tumour cell growth, NCI panel, 48 h
[1] = tested on: MDA-MB-435
[2] = tested on: BT-549
[3] = tested on: NCI-H23
[4] = tested on: SF-539
[5] = tested on: MCF7
[6] = tested on: Malme-3M
[7] = tested on: OVCAR-3
[8] = tested on: SK-MEL-5
[9] = tested on: SF-295
[10] = tested on: UO-31
[11] = tested on: NCI-H522
[12] = tested on: A549
[13] = tested on: KM12
[14] = tested on: LOX IMVI
[15] = tested on: SR
[16] = tested on: HOP-62
[17] = tested on: ACHN
[18] = tested on: NCI-H460
[19] = tested on: EKVX
[20] = tested on: SK-OV-3
[21] = tested on: CAKI-1
[22] = tested on: UACC-62
[23] = tested on: SNB-75
[24] = tested on: OVCAR-8
[25] = tested on: Hs-578T
[26] = tested on: SF-268
[27] = tested on: 786-0
[28] = tested on: UACC-257
[29] = tested on: HOP-92
[30] = tested on: DU-145
[31] = tested on: COLO 205
[32] = tested on: HCC 2998
[33] = tested on: MDA-MB-231
[34] = tested on: NCI-H226
[35] = tested on: MDA-N
[36] = tested on: SK-MEL-2
[37] = tested on: CCRF-CEM
[38] = tested on: MOLT-4
[39] = tested on: HCT-116
[40] = tested on: TK-10
[41] = tested on: A498
[42] = tested on: HCT-15
[43] = tested on: IGROV-1
[44] = tested on: K562
[45] = tested on: HL-60
[46] = tested on: NCI/ADR-RES
[47] = tested on: M14
[48] = tested on: SN12C
[49] = tested on: SK-MEL-28
[50] = tested on: U-251
[51] = tested on: OVCAR-4
[52] = tested on: HT-29
[53] = tested on: SW-620
[54] = tested on: T47D
[55] = tested on: PC-3
[56] = tested on: OVCAR-5
[57] = tested on: SNB-19
[58] = tested on: RPMI-8226
[59] = tested on: RXF 393

## O/N=C1\C/C(=N\O)c2c(Br)sc(Br)c21
[1]
  GI50: 41.8 µM (inactive)
[2]
  GI50: 31.6 µM (inactive)
[3]
  GI50: 20.4 µM (inactive)
[4]
  GI50: 38.2 µM (inactive)
[5]
  GI50: 38.3 µM (inactive)
[6]
  GI50: > 100 µM (inactive)
[7]
  GI50: 30.6 µM (inactive)
[8]
  GI50: > 100 µM (inactive)
[9]
  GI50: > 100 µM (inactive)
[10]
  GI50: 20.6 µM (inactive)
[11]
  GI50: 17.7 µM (inactive)
[12]
  GI50: 26.2 µM (inactive)
[13]
  GI50: 32.6 µM (inactive)
[14]
  GI50: 18.8 µM (inactive)
[15]
  GI50: 8.99 µM (inactive)
[16]
  GI50: 32.1 µM (inactive)
[17]
  GI50: > 100 µM (inactive)
[18]
  GI50: > 100 µM (inactive)
[19]
  GI50: 16.9 µM (inactive)
[20]
  GI50: 91.8 µM (inactive)
[21]
  GI50: 19.4 µM (inactive)
[22]
  GI50: 91.2 µM (inactive)
[23]
  GI50: 17.3 µM (inactive)
[24]
  GI50: 19.2 µM (inactive)
[25]
  GI50: 0.216 µM (active)
[26]
  GI50: 17.4 µM (inactive)
[27]
  GI50: 36 µM (inactive)
[28]
  GI50: > 100 µM (inactive)
[29]
  GI50: 46 µM (inactive)
[30]
  GI50: 39.1 µM (inactive)
[31]
  GI50: 70.8 µM (inactive)
[32]
  GI50: 23.7 µM (inactive)
[33]
  GI50: 77.1 µM (inactive)
[34]
  GI50: 51.8 µM (inactive)
[35]
  GI50: 78.5 µM (inactive)
[36]
  GI50: 43.4 µM (inactive)
[37]
  GI50: 11.1 µM (inactive)
[38]
  GI50: 29.2 µM (inactive)
[39]
  GI50: 37.4 µM (inactive)
[40]
  GI50: 38.5 µM (inactive)
[41]
  GI50: 58.1 µM (inactive)
[42]
  GI50: 17.3 µM
[43]
  GI50: 30.4 µM (inactive)
[44]
  GI50: 37.5 µM (inactive)
[45]
  GI50: 27.4 µM (inactive)
[46]
  GI50: 30.2 µM (inactive)
[47]
  GI50: 45.6 µM (inactive)
[48]
  GI50: > 100 µM (inactive)
[49]
  GI50: 24.7 µM (inactive)
[50]
  GI50: 43.2 µM (inactive)
[51]
  GI50: 27.2 µM (inactive)
[52]
  GI50: > 100 µM (inactive)
[53]
  GI50: 26.4 µM (inactive)
[54]
  GI50: 31.3 µM (inactive)

## Oc1ccc2ccccc2c1/N=N/c1ccc(Br)cc1
[1]
  GI50: > 100 µM (inactive)
[2]
  GI50: > 100 µM (inactive)
[3]
  GI50: > 100 µM (inactive)
[6]
  GI50: 66.1 µM (inactive)
[7]
  GI50: 86.9 µM (inactive)
[8]
  GI50: > 100 µM (inactive)
[9]
  GI50: 28.9 µM (inactive)
[10]
  GI50: > 100 µM (inactive)
[11]
  GI50: > 100 µM (inactive)
[12]
  GI50: > 100 µM (inactive)
[13]
  GI50: 77.6 µM (inactive)
[14]
  GI50: > 100 µM (inactive)
[15]
  GI50: > 100 µM (inactive)
[55]
  GI50: > 100 µM (inactive)
[16]
  GI50: 21 µM (inactive)
[17]
  GI50: 89.1 µM (inactive)
[19]
  GI50: 36.2 µM (inactive)
[20]
  GI50: 17.4 µM (inactive)
[21]
  GI50: > 100 µM (inactive)
[22]
  GI50: > 100 µM (inactive)
[23]
  GI50: 95.5 µM (inactive)
[24]
  GI50: > 100 µM (inactive)
[56]
  GI50: 63 µM (inactive)
[25]
  GI50: 24.7 µM (inactive)
[26]
  GI50: 23.6 µM (inactive)
[27]
  GI50: > 100 µM (inactive)
[28]
  GI50: > 100 µM (inactive)
[29]
  GI50: 35.3 µM (inactive)
[57]
  GI50: > 100 µM (inactive)
[30]
  GI50: > 100 µM (inactive)
[58]
  GI50: > 100 µM (inactive)
[31]
  GI50: > 100 µM (inactive)
[33]
  GI50: > 100 µM (inactive)
[34]
  GI50: 66.7 µM (inactive)
[35]
  GI50: > 100 µM (inactive)
[36]
  GI50: > 100 µM (inactive)
[37]
  GI50: > 100 µM (inactive)
[38]
  GI50: > 100 µM (inactive)
[39]
  GI50: > 100 µM (inactive)
[40]
  GI50: 59.6 µM (inactive)
[42]
  GI50: > 100 µM
[43]
  GI50: 36.1 µM (inactive)
[44]
  GI50: > 100 µM (inactive)
[45]
  GI50: > 100 µM (inactive)
[59]
  GI50: > 100 µM (inactive)
[46]
  GI50: > 100 µM (inactive)
[47]
  GI50: 87.5 µM (inactive)
[48]
  GI50: > 100 µM (inactive)
[49]
  GI50: > 100 µM (inactive)
[50]
  GI50: > 100 µM (inactive)
[51]
  GI50: 27.8 µM (inactive)
[52]
  GI50: > 100 µM (inactive)
[53]
  GI50: > 100 µM (inactive)
[54]
  GI50: > 100 µM (inactive)
